ChEMBL document CHEMBL2069241, “Isosteric replacements for benzothiazoles and optimisation to potent Cathepsin K inhibitors free from hERG channel inhibition” (Bioorg Med Chem Lett, 2012)
≈ marks a conversion by molar mass, not a printed value.

How the values were obtained:
physchem [1] = conditions: buffer, pH 7.4
physchem [2] = conditions: buffer, pH 7.4; remark: listed apart in the source
[3] = Volume of distribution at steady state in Han Wistar rat at 1 mg/kg, iv and 2 mg/kg, po; type: ADME, organism-based; conditions: in vivo, read-out: Vdss
[4] = Oral bioavailability in Han Wistar rat at 2 mg/kg; type: ADME, organism-based; conditions: in vivo
[5] = Volume of distribution at steady state in beagle dog at 1 mg/kg, iv and 1 mg/kg, po; type: ADME, organism-based, Canis lupus familiaris; conditions: in vivo, read-out: Vdss
[6] = Oral bioavailability in beagle dog at 1 mg/kg; type: ADME, organism-based, Canis lupus familiaris; conditions: in vivo

Compound | logD (physchem [1]) | solubility (physchem [2]) | Vd [3] | bioavailability [4] | Vd [5] | bioavailability [6]
N#CC1(NC(=O)[C@@H]2CCCC[C@H]2C(=O)N2CCN(c3nc(-c4ccccc4)cs3)CC2)CC1 | 3.5 | 96 µM (≈ 44.5 µg/mL) |  |  |  | 
N#CC1(NC(=O)[C@@H]2CCCC[C@H]2C(=O)N2CCN(c3nc4ccccc4s3)CC2)CC1 | 2.6 | 1000 µM (≈ 438 µg/mL) | 1.5 L/kg | 20% | 1.5 L/kg | 78%
N#CC1(NC(=O)[C@@H]2CCCC[C@H]2C(=O)N2CCN(c3nccs3)CC2)CC1 | 1.3 | 3100 µM (≈ 1200 µg/mL) |  |  |  | 
Cc1sc(N2CCN(C(=O)[C@@H]3CCCC[C@H]3C(=O)NC3(C#N)CC3)CC2)nc1C(F)(F)F | 2.9 |  |  |  |  | 
CS(=O)(=O)c1ccc2nc(N3CCN(C(=O)[C@@H]4CCCC[C@H]4C(=O)NC4(C#N)CC4)CC3)sc2c1 | 1.5 |  | 0.54 L/kg | 3.3% |  | 
CC(C)(C#N)c1cnc(N2CCN(C(=O)[C@@H]3CCCC[C@H]3C(=O)NC3(C#N)CC3)CC2)s1 | 1.9 | 2600 µM (≈ 1180 µg/mL) |  |  |  | 
N#CC1(NC(=O)[C@@H]2CCCC[C@H]2C(=O)N2CCN(c3nc4ccncc4s3)CC2)CC1 | 1.6 | > 1600 µM |  |  |  | 
N#CC1(NC(=O)[C@@H]2CCCC[C@H]2C(=O)N2CCN(c3nc4c(s3)COCC4)CC2)CC1 | 1.4 | > 3600 µM | 1.3 L/kg | 33% |  | 
CC1(C)COCc2sc(N3CCN(C(=O)[C@@H]4CCCC[C@H]4C(=O)NC4(C#N)CC4)CC3)nc21 | 2.4 | 1700 µM (≈ 802 µg/mL) |  |  |  | 

Now from value to compound:

logD (physchem [1]) | solubility (physchem [2]) | Vd [3] | bioavailability [4] | Vd [5] | bioavailability [6] | Compound
3.3 | 280 µM (≈ 124 µg/mL) |  |  |  |  | CC(C)(C)c1csc(N2CCN(C(=O)[C@@H]3CCCC[C@H]3C(=O)NC3(C#N)CC3)CC2)n1
2.4 |  |  |  |  |  | N#CC1(NC(=O)[C@@H]2CCCC[C@H]2C(=O)N2CCN(c3nc(C(F)(F)F)cs3)CC2)CC1
3.4 |  |  |  |  |  | N#CC1(NC(=O)[C@@H]2CCCC[C@H]2C(=O)N2CCN(c3nc(C(F)(F)F)c(Cl)s3)CC2)CC1
1.2 |  |  |  |  |  | N#Cc1cnc(N2CCN(C(=O)[C@@H]3CCCC[C@H]3C(=O)NC3(C#N)CC3)CC2)s1
1.7 | > 1500 µM | 0.8 L/kg | 17% |  |  | N#CC1(NC(=O)[C@@H]2CCCC[C@H]2C(=O)N2CCN(c3nc4cnccc4s3)CC2)CC1
1.4 | > 2000 µM |  |  |  |  | N#CC1(NC(=O)[C@@H]2CCCC[C@H]2C(=O)N2CCN(c3nc4ncccc4s3)CC2)CC1
> 3 |  |  |  |  |  | N#CC1(NC(=O)[C@@H]2CCCC[C@H]2C(=O)N2CCN(c3nc4c(s3)CCC4)CC2)CC1
